Measured values as given in patent US10238688B2, “Combination therapies for bladder cancer” (GENEDIA BIOTECH CO. LTD., priority 2015, dated 2019).

How the values were obtained:
Format in all cases: cell-based, human
[1] = system: T24; test: MTT cell survival / IC50, T24 cells; settings: for Cell survival (%): Table S3, ng/ml: Pi 40, Pa 160, EH 250, Ci 1500, Mi 200, 1=Ci/Mi, 2=EH/Ci/Mi, 3=Pa/Ci/Mi, 4=Pi/Ci/Mi; for Single drug 4X Cell Survival (%): ng/ml: EH 1000, Ci 6000, Mi 800, Pi 160, Pa 640, Ge 20, EH/Ci/Mi regimen
Method: (§1) The clinical grade of the chemotherapeutics (NCI Dictionary of Cancer Terms) was provided by the First Affiliated Hospital of Harbin Medical University: Pirarubicin (Pi, Wanle, Shenzhen), Paclitaxel (Pa, Taiji, Sichuan), Adriamycin (Ad, Pfizer, Jiangsu), Epirubicin Hydrochloride (EH, Haizheng, Zhejiang), Hydroxycamptothecin (Hy, Lishizhen, Hubei), Cisplatin (Ci, Haosen, Jiangsu), Gemcitabine (Ge, Haosen, Jiangsu) and Mitomycin (Mi, Haizheng, Zhejiang). The drug induced cell death was determined by a thiazolyl […] (MTT, 490 nm reading) based cell proliferation assay in the cultured cells following treatment by various concentrations of drugs for 72 hours. The relative chemoresistance to each drug of all cell lines was calculated with the lowest IC50 as a reference. The overall chemoresistance of each cell line was described as “chemoresistance index”, the numerator of the total relative IC50 to all the drugs over the number of drugs to rank the overall resistance state of each cell line to the six chemotherapeutics collectively.
(§2) The relative IC50 (fold) of each drug of all nine cell lines was normalized to the lowest IC50 in the most sensitive cell line (FIG. 2G), to describe the single drug resistance of cell lines. The overall chemoresistance of each cell line, a “chemoresistance index” (the numerator of the total relative IC50 over the number of drugs) (FIG. 2G) were calculated to rank the overall resistance state of each cell line to this six chemotherapeutics.
(§3) Twenty six-drug combinations at the indicated doses were initially generated through a random number generator (using MATLAB MathWorks©, Natick, Mass., U.S.) (The upper half of Table 1). The cell survival (% over the not drug control) of treated cells was determined and then used for a calculation of the average cumulative cell survival (%, ACS: the sum of cell survival (%) per combination divided by the number of cell lines tested). ACS<30% was used to separate the effective from the not-effective combinations.

[2] = system: UM-UC-3; test: MTT cell survival / IC50, UM-UC-3 cells; settings: for Cell survival (%) / Single drug 4X Cell Survival (%): UM-UC-3; for Cell survival (%): Table S3, ng/ml: Pi 40, Pa 160, EH 250, Ci 1500, Mi 200, 1=Ci/Mi, 2=EH/Ci/Mi, 3=Pa/Ci/Mi, 4=Pi/Ci/Mi; for Single drug 4X Cell Survival (%): ng/ml: EH 1000, Ci 6000, Mi 800, Pi 160, Pa 640, Ge 20, EH/Ci/Mi regimen; for ACS (%): UM-UC-3 cells, Table 4 (B); for Cell survival 72 hours: Um-Uc-3 cells, Table 4 (A)
Method: as §1, §2, §3

[3] = system: Hypoxia pathway; test: Cignal Finder dual-luciferase pathway reporter, Hypoxia; design: key to Relative activity, Hypoxia reporter: firefly/renilla ratio, background (negative control) subtracted; settings: for Relative activity, Hypoxia reporter: luc/Renluc relative to negative control reporter, single drug at 4 folds vs EH/Ci/Mi combination
Method: (§4) The pathway analysis was performed with Qiagen's Cignal Finder Pathway Reporter Array systems according to the manufacturer's instructions. The pathway-focused dual-luciferase reporter construct was a mixture of an inducible transcription factor responsive firefly luciferase reporter and constitutively expressing renilla construct. Transcriptional response element (TRE) sequence response elements to each specific transcriptional factor triggered by the different signaling pathways are positioned before the TATA box of firefly luciferase reporter gene. The extent of activity of the reporter reflects the level of activity of the particular signaling pathway. CMV controlled renilla expression vector is co-transfected into the cell as an internal control. Non-inducible reporter construct that lacks the transcriptional factor binding sequence and could not be induced by any transcription factors is used as a negative control. Cells transfected with CMV directed firefly luciferase reporter gene serve as a positive control. Briefly, cells seeded in 6-well plates were transfected with Cignal finder pathway arrays according to the manufacturer's instructions (Qiagen). Then cells were seeded onto 96-well plates. Ci (6000 ng/mL), Mi (800 ng/mL), or EH (1000 ng/mL) and Ci/Mi/EH combination (Ci, 1500 ng/mL, Mi, 800 ng/mL and EH, 1000 ng/m L) were then added to the cells 24 h post-transfection. After 6 h of incubation with the different drugs at 37° C., cells were lysed and a dual luciferase assay (for firefly and renilla luciferase) was performed using a PromegaGloMax 20/20 illuminometer. The firefly luciferase activities were normalized over the renilla luciferase activities after background activity determined by luciferase activities of negative controls was subtracted. A triple test of cell survival under these drug doses was also performed by MTT assay following 18 h incubation at 37° C. […]

[4] = system: Myc/Max pathway; test: Cignal Finder dual-luciferase pathway reporter, Myc/Max; settings: for Relative activity, Myc/Max reporter: luc/Renluc relative to negative control reporter, single drug at 4 folds vs EH/Ci/Mi combination
Method: as §4, with “Ci (6000 ng/mL), Mi (800 ng/mL), or EH (1000 ng/mL) and Ci/Mi/EH combination (Ci, 1500 ng/mL, Mi, 800 ng/mL and EH, 1000 ng/m L) were then added to the cells 24 h post-transfection.” left out

[5] = system: MAPK/ERK pathway; test: Cignal Finder dual-luciferase pathway reporter, MAPK/ERK; settings: for Relative activity, MAPK/ERK reporter: luc/Renluc relative to negative control reporter, single drug at 4 folds vs EH/Ci/Mi combination
Method: as §4

## N.N.[Cl][Pt][Cl] [Ci, (SP-4-2)-diamminedichloroplatinum(II)]
[1]
  Cell survival (%): 15.46%
  Single drug 4X Cell Survival (%): 10.49%
[2]
  Cell survival (%): 14.71%
  Single drug 4X Cell Survival (%): 9.33%
  ACS (%): 9.33%
  Cell survival 72 hours: 9.33%
[3]; 5637 cells
  relative drug trigged pathway activity over the no-drug level, Hypoxia: 1.64 fold
  Relative activity, Hypoxia reporter: 37.36
[3]; Biu87 cells
  digitalized pathway activity, Hypoxia: 0 (null (0) if neither of the above holds)
  relative drug trigged pathway activity over the no-drug level, Hypoxia: 1.32 fold
  Relative activity, Hypoxia reporter: 10.01
[3]; H-bc cells
  relative drug trigged pathway activity over the no-drug level, Hypoxia: 0.39 fold
  Relative activity, Hypoxia reporter: 49.11
[3]; SV-HUC-1 cells
  digitalized pathway activity, Hypoxia: 0 (null (0) if neither of the above holds)
  relative drug trigged pathway activity over the no-drug level, Hypoxia: 1.19 fold
  Relative activity, Hypoxia reporter: 30.20
[3]; UM-UC-3 cells
  digitalized pathway activity, Hypoxia: 0 (null (0) if neither of the above holds)
  Relative activity, Hypoxia reporter: 41.68
[3]; Um-Uc-3 cells
  relative drug trigged pathway activity over the no-drug level, Hypoxia: 0.66 fold
[4]; 5637 cells
  digitalized pathway activity, Myc/Max: 0 (null (0) if neither of the above holds)
  relative drug trigged pathway activity over the no-drug level, Myc/Max: 1.05 fold
  Relative activity, Myc/Max reporter: 11.64
[4]; Biu87 cells
  digitalized pathway activity, Myc/Max: 0 (null (0) if neither of the above holds)
  relative drug trigged pathway activity over the no-drug level, Myc/Max: 0.56 fold
  Relative activity, Myc/Max reporter: 4.60
[4]; H-bc cells
  digitalized pathway activity, Myc/Max: 0 (null (0) if neither of the above holds)
  relative drug trigged pathway activity over the no-drug level, Myc/Max: 1.03 fold
  Relative activity, Myc/Max reporter: 50.23
[4]; SV-HUC-1 cells
  digitalized pathway activity, Myc/Max: 0 (null (0) if neither of the above holds)
  relative drug trigged pathway activity over the no-drug level, Myc/Max: 1 fold
  Relative activity, Myc/Max reporter: 109.70
[4]; UM-UC-3 cells
  Relative activity, Myc/Max reporter: 24.42
[4]; Um-Uc-3 cells
  relative drug trigged pathway activity over the no-drug level, Myc/Max: 0.42 fold
[5]; 5637 cells
  relative drug trigged pathway activity over the no-drug level, MAPK/ERK: 1.74 fold
  Relative activity, MAPK/ERK reporter: 90.77
[5]; Biu87 cells
  digitalized pathway activity, MAPK/ERK: 0 (null (0) if neither of the above holds)
  relative drug trigged pathway activity over the no-drug level, MAPK/ERK: 0.66 fold
  Relative activity, MAPK/ERK reporter: 321.19
[5]; H-bc cells
  digitalized pathway activity, MAPK/ERK: 0 (null (0) if neither of the above holds)
  relative drug trigged pathway activity over the no-drug level, MAPK/ERK: 0.71 fold
  Relative activity, MAPK/ERK reporter: 340.57
[5]; SV-HUC-1 cells
  relative drug trigged pathway activity over the no-drug level, MAPK/ERK: 1.65 fold
  Relative activity, MAPK/ERK reporter: 389.00
[5]; UM-UC-3 cells
  digitalized pathway activity, MAPK/ERK: 0 (null (0) if neither of the above holds)
  Relative activity, MAPK/ERK reporter: 72.05
[5]; Um-Uc-3 cells
  relative drug trigged pathway activity over the no-drug level, MAPK/ERK: 0.51 fold

## COc1cccc2c1C(=O)c1c(O)c3c(c(O)c1C2=O)C[C@@](O)(C(=O)CO)C[C@@H]3[C@@H]1C[C@H](N)[C@@H](O)[C@H](C)O1 [EH, (8R,10S)-10-((2S,4S,5R,6S)-4-amino-5-hydroxy-6-methyltetrahydro-2H-pyran-2-yl)-6,8,11-trihydroxy-8-(2-hydroxyacetyl)-1-methoxy-7,8,9,10-tetrahydrotetracene-5,12-dione]
[1]
  Cell survival (%): 20.13%
  Single drug 4X Cell Survival (%): 17.79%
[2]
  Cell survival (%): 43.54%
  Single drug 4X Cell Survival (%): 25.19%
  ACS (%): 25.19%
  Cell survival 72 hours: 25.19%
[3]; 5637 cells
  relative drug trigged pathway activity over the no-drug level, Hypoxia: 2.27 fold
  Relative activity, Hypoxia reporter: 51.46
[3]; Biu87 cells
  relative drug trigged pathway activity over the no-drug level, Hypoxia: 2.26 fold
  Relative activity, Hypoxia reporter: 17.13
[3]; H-bc cells
  relative drug trigged pathway activity over the no-drug level, Hypoxia: 1.72 fold
  Relative activity, Hypoxia reporter: 57.60
[3]; SV-HUC-1 cells
  relative drug trigged pathway activity over the no-drug level, Hypoxia: 1.74 fold
  Relative activity, Hypoxia reporter: 44.00
[3]; UM-UC-3 cells
  digitalized pathway activity, Hypoxia: 0 (null (0) if neither of the above holds)
  Relative activity, Hypoxia reporter: 73.93
[3]; Um-Uc-3 cells
  relative drug trigged pathway activity over the no-drug level, Hypoxia: 1.18 fold
[4]; 5637 cells
  relative drug trigged pathway activity over the no-drug level, Myc/Max: 1.5 fold
  Relative activity, Myc/Max reporter: 16.61
[4]; Biu87 cells
  relative drug trigged pathway activity over the no-drug level, Myc/Max: 1.66 fold
  Relative activity, Myc/Max reporter: 13.61
[4]; H-bc cells
  digitalized pathway activity, Myc/Max: 0 (null (0) if neither of the above holds)
  relative drug trigged pathway activity over the no-drug level, Myc/Max: 1.37 fold
  Relative activity, Myc/Max reporter: 17.62
[4]; SV-HUC-1 cells
  digitalized pathway activity, Myc/Max: 0 (null (0) if neither of the above holds)
  relative drug trigged pathway activity over the no-drug level, Myc/Max: 1.13 fold
  Relative activity, Myc/Max reporter: 125.00
[4]; UM-UC-3 cells
  Relative activity, Myc/Max reporter: 25.48
[4]; Um-Uc-3 cells
  relative drug trigged pathway activity over the no-drug level, Myc/Max: 0.44 fold
[5]; 5637 cells
  relative drug trigged pathway activity over the no-drug level, MAPK/ERK: 2.26 fold
  Relative activity, MAPK/ERK reporter: 117.70
[5]; Biu87 cells
  digitalized pathway activity, MAPK/ERK: 0 (null (0) if neither of the above holds)
  relative drug trigged pathway activity over the no-drug level, MAPK/ERK: 1.24 fold
  Relative activity, MAPK/ERK reporter: 608.33
[5]; H-bc cells
  digitalized pathway activity, MAPK/ERK: 0 (null (0) if neither of the above holds)
  relative drug trigged pathway activity over the no-drug level, MAPK/ERK: 0.75 fold
  Relative activity, MAPK/ERK reporter: 95.16
[5]; SV-HUC-1 cells
  digitalized pathway activity, MAPK/ERK: 0 (null (0) if neither of the above holds)
  relative drug trigged pathway activity over the no-drug level, MAPK/ERK: 0.95 fold
  Relative activity, MAPK/ERK reporter: 225.00
[5]; UM-UC-3 cells
  Relative activity, MAPK/ERK reporter: 183.22
[5]; Um-Uc-3 cells
  relative drug trigged pathway activity over the no-drug level, MAPK/ERK: 1.29 fold
